Reference: the supplement of paper PMC9780213

How the values were obtained:
Details in all cases: treatment time: 24 h
[1] = test system: U2OS-LMNB1-TUBA1B-ACTB; experiment: cell count relative to DMSO control (panel C1, DRAQ5/ER stain) (fraction of control); higher = more cells (less toxicity)
Protocol: (§1)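 U2OS-derived cells in 384-well plates were treated for 24 h with a 7-point 2-fold dilution series (top dose 20 µM for most compounds; final max DMSO 1%), then fixed, stained in four marker panels and imaged on a Cellomics ArrayScan. Cell count per treatment (three replicate plates merged) is given as a fraction of DMSO control. Panel A used parental U2OS, panel B U2OS-mOrange2-Peroxisome, panel C1 U2OS-LMNB1-TUBA1B-ACTB (DRAQ5 nuclei).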

[2] = test system: U2OS-mOrange2-Peroxisome; experiment: cell count relative to DMSO control (panel B, lysosome/peroxisome/lipid stain) (fraction of control); higher = more cells (less toxicity)
Protocol: as §1

[3] = test system: U2OS; experiment: cell count relative to DMSO control (panel A, nuclei/RNA/PMG/mitochondria stain) (fraction of control); higher = more cells (less toxicity)
Protocol: as §1

| Structure (SMILES) | cell count ([1]; 0.07812 µM) | cell count ([1]; 0.15625 µM) | cell count ([1]; 0.3125 µM) | cell count ([1]; 0.625 µM) | cell count ([1]; 1.25 µM) | cell count ([1]; 2.5 µM) | cell count ([1]; 5 µM) | cell count ([2]; 0.07812 µM) | cell count ([2]; 0.15625 µM) | cell count ([2]; 0.3125 µM) | cell count ([2]; 0.625 µM) | cell count ([2]; 1.25 µM) | cell count ([2]; 2.5 µM) | cell count ([2]; 5 µM) | cell count ([3]; 0.07812 µM) | cell count ([3]; 0.15625 µM) | cell count ([3]; 0.3125 µM) | cell count ([3]; 0.625 µM) | cell count ([3]; 1.25 µM) | cell count ([3]; 2.5 µM) | cell count ([3]; 5 µM) | cell count ([1]; 10 µM) | cell count ([1]; 20 µM) | cell count ([2]; 10 µM) | cell count ([2]; 20 µM) | cell count ([3]; 10 µM) | cell count ([3]; 20 µM) |
| --- | --- | --- | --- | --- | --- | --- | --- | --- | --- | --- | --- | --- | --- | --- | --- | --- | --- | --- | --- | --- | --- | --- | --- | --- | --- | --- | --- |
| COc1cccc2c1C(=O)c1c(O)c3c(c(O)c1C2=O)C[C@@](O)(C(C)=O)C[C@@H]3O[C@H]1C[C@H](N)[C@H](O)[C@H](C)O1 [daunorubicin] | 0.953 | 0.99 | 1.02 | 0.912 | 0.645 | 0.613 | 0.472 | 0.537 | 0.529 | 0.527 | 0.605 | 0.618 | 0.398 | 0.152 | 0.92 | 0.928 | 0.96 | 0.829 | 0.457 | 0.376 | 0.183 |  |  |  |  |  |  |
| N#CC(C#N)=NNc1ccc(OC(F)(F)F)cc1 [FCCP] |  |  | 1.11 | 1.13 | 1.01 | 1.05 | 0.894 |  |  | 0.804 | 0.769 | 0.715 | 0.625 | 0.802 |  |  | 0.961 | 0.945 | 0.883 | 0.867 | 0.897 | 0.666 | 0.651 | 0.659 | 0.618 | 0.622 | 0.704 |
| Fc1cc(F)c2c(c1)[C@H]1C=CC[C@H]1C(c1cccnc1)N2 (stereo not given in full) [golgicide-A] |  |  | 0.952 | 1.05 | 0.982 | 1.1 | 1.14 |  |  | 0.814 | 0.73 | 0.804 | 0.719 | 0.89 |  |  | 0.981 | 1 | 0.929 | 1.06 | 1.03 | 1.05 | 0.778 | 0.916 | 0.833 | 0.826 | 0.566 |
| CC(=O)O[C@H]1C(=O)[C@@]2(C)[C@H]([C@H](OC(=O)c3ccccc3)[C@]3(O)C[C@H](OC(=O)[C@H](O)[C@@H](NC(=O)c4ccccc4)c4ccccc4)C(C)=C1C3(C)C)[C@]1(OC(C)=O)CO[C@@H]1C[C@@H]2O [paclitaxel] |  |  | 1.04 | 1.09 | 1.08 | 1.05 | 0.93 |  |  | 0.878 | 0.695 | 0.709 | 0.787 | 0.849 |  |  | 0.956 | 1.05 | 0.97 | 0.928 | 1.04 | 1.14 | 0.992 | 0.843 | 1.14 | 1 | 1 |
| CC[C@H]1CN2CCc3cc(OC)c(OC)cc3[C@@H]2C[C@@H]1C[C@H]1NCCc2cc(OC)c(OC)cc21 [emetine] |  |  | 1.11 | 1.08 | 1 | 1.06 | 1.02 |  |  | 1.04 | 1.29 | 1.13 | 1.04 | 1.06 |  |  | 1.08 | 1.01 | 1.01 | 0.994 | 1.02 | 0.916 | 0.899 | 1.15 | 1.08 | 1.05 | 0.753 |
| NCCCCC(N)C(=O)NC(CCCCN)C(=O)NC(Cc1c[nH]c2ccccc12)C(=O)NC(Cc1c[nH]c2ccccc12)C(=O)NC(CCCCN)C(=O)NC(CCCCN)C(=O)NC(Cc1c[nH]c2ccccc12)C(=O)NC(C(=O)NC(CCCCN)C(N)=O)C(c1ccccc1)c1ccccc1 (stereo not given) [LTX-315] |  |  | 1.13 | 1.1 | 1.08 | 1.05 | 0.842 |  |  | 0.785 | 0.756 | 0.817 | 0.766 | 0.885 |  |  | 1.04 | 0.967 | 1.09 | 0.948 | 0.657 | 0.47 | 0.0329 | 0.508 | 0.0593 | 0.15 | 0.0373 |
| O=C1c2c(O)ccc(O)c2C(=O)c2c(NCCNCCO)ccc(NCCNCCO)c21 [mitoxantrone] | 1.05 | 0.693 | 0.532 | 0.465 | 0.434 | 0.403 | 0.371 | 1.16 | 0.953 | 0.648 | 0.642 | 0.605 | 0.544 | 0.548 | 0.956 | 0.887 | 0.662 | 0.503 | 0.411 | 0.455 | 0.447 |  |  |  |  |  |  |
| CNCCCN1c2ccccc2CCc2ccccc21 [desipramine] |  |  | 0.972 | 0.817 | 0.772 | 0.652 | 0.595 |  |  | 0.62 | 0.64 | 0.617 | 0.571 | 0.15 |  |  | 0.822 | 0.55 | 0.489 | 0.481 | 0.379 | 0.32 | 0.333 | 0.115 | 0.0511 | 0.243 | 0.189 |
| COC(=O)Nc1nc2ccc(C(=O)c3cccs3)cc2[nH]1 [nocodazole] |  |  | 1.12 | 0.993 | 1.01 | 0.999 | 0.737 |  |  | 0.837 | 0.656 | 0.775 | 0.628 | 0.411 |  |  | 1.06 | 0.962 | 1.03 | 0.792 | 0.692 | 0.414 | 0.369 | 0.425 | 0.381 | 0.317 | 0.196 |
| COc1cccc2c1C(=O)c1c(O)c3c(c(O)c1C2=O)C[C@@](O)(C(=O)CO)C[C@@H]3O[C@H]1C[C@H](N)[C@H](O)[C@H](C)O1 [doxorubicin] | 1.08 | 1.17 | 1.12 | 1.23 | 0.925 | 0.807 | 0.624 | 0.712 | 0.735 | 0.747 | 0.899 | 0.86 | 1.1 | 0.37 | 0.933 | 1.03 | 0.932 | 0.836 | 0.84 | 0.754 | 0.34 |  |  |  |  |  |  |
| C[C@H]1O[C@@H](O[C@H]2[C@@H](O)C[C@H](O[C@H]3[C@@H](O)C[C@H](O[C@H]4CC[C@@]5(C)[C@H](CC[C@@H]6[C@@H]5CC[C@]5(C)[C@@H](C7=CC(=O)OC7)CC[C@]65O)C4)O[C@@H]3C)O[C@@H]2C)C[C@H](O)[C@@H]1O [digitoxin] | 0.905 | 1.04 | 1.03 | 1.05 | 1.02 | 1.11 | 1.12 | 1.24 | 1.23 | 0.888 | 1.04 | 1.01 | 1.09 | 1.02 | 1.07 | 1.02 | 1.04 | 1.11 | 1.13 | 1.09 | 1.11 |  |  |  |  |  |  |
| O=C(O)CCCCC(CCSCc1ccccc1)SCc1ccccc1 (stereo not given) [CPI-613] |  |  | 1.36 | 1.4 | 1.03 | 1.06 | 1.15 |  |  | 0.907 | 1.1 | 0.897 | 1.1 | 0.851 |  |  | 1.01 | 0.993 | 0.975 | 1.04 | 1.14 | 1.08 | 1.14 | 0.902 | 0.849 | 1.11 | 1.05 |
| CCCC[C@H]1C(=O)O[C@H](C)[C@H](NC(=O)c2cccc(NC=O)c2O)C(=O)O[C@@H](C)[C@@H]1OC(=O)CC(C)C [antimycin-a] |  | 1.01 | 1.05 | 0.943 | 0.716 | 0.66 | 0.626 |  | 1.04 | 0.945 | 0.858 | 0.811 | 0.724 | 0.66 |  | 1.04 | 1.02 | 0.799 | 0.644 | 0.587 | 0.497 | 0.54 |  | 0.739 |  | 0.507 |  |
| CC(C)n1nc(-c2ccc3oc(N)nc3c2)c2c(N)ncnc21 [MLN0128] | 0.774 | 0.748 | 0.7 | 0.698 | 0.614 | 0.557 | 0.271 | 0.578 | 0.426 | 0.42 | 0.439 | 0.393 | 0.301 | 0.0428 | 0.646 | 0.584 | 0.521 | 0.481 | 0.454 | 0.408 | 0.204 |  |  |  |  |  |  |
| CC(C)n1c(/C=C/C(O)CC(O)CC(=O)O)c(-c2ccc(F)cc2)c2ccccc21 (stereo not given) [fluvastatin] |  |  | 1.01 | 0.939 | 0.943 | 0.931 | 0.899 |  |  | 0.991 | 0.839 | 0.835 | 0.93 | 0.815 |  |  | 0.901 | 0.848 | 0.867 | 0.777 | 0.826 | 0.892 | 0.849 | 0.872 | 0.22 | 0.702 | 0.441 |
